# Measurements as given in US7700644B2, “Isoflavonoid dimers” (Novogen Research Pty Ltd, priority 2005, dated 2010).
# How the values were obtained:
# [1] = test system: MCF-7 (Breast); assay: In vitro cytotoxicity, MTT proliferation assay, MCF-7; type: cell-based, human; conditions: Homo sapiens, MCF7; Breast MCF-7
# Procedure: (§1) The human pancreatic cancer cell line, HPAC (CRL-2119) was routinely cultured in 1:1 mixture DMEM (Sigma) plus Ham's F12 (Sigma) medium containing HEPES (15 mM), insulin (0.002 mg/ml), transferrin (0.005 mg/ml), hydrocortisone, (40 ng/ml), epidermal growth factor (10 ng/ml). The ovarian cancer cell line CP70 was obtained as a gift from Dr. Gil Mor (Yale University) and cultured in a 1:1 mixture DMEM plus Ham's F12 medium, and SKOV-3 was purchased from ATCC and cultured in McCoy's 5a medium. The breast cancer cell line MDA-MB-468 cultured in Leibovitz's L-15 medium.
# (§2) All cultures were supplemented with 10% FCS(CSL, Australia), penicillin (100 U/ml), streptomycin ([…]), L-glutamine (2 mM) and sodium bicarbonate (1.2 g/L), and cultured at 37° C. in a humidified atmosphere of 5% CO2. All remaining cell lines were purchased from ATCC (Maryland, USA) except where noted.
# (§3) IC50 values were determined for each cell line. Cells were seeded in 96-well plates at an appropriate cell density as determined from growth kinetics analysis. NFFs were cultured for 5 days and RK-13s for 24 hrs in the absence and presence of the test compounds. Cell proliferation was assessed after the addition of 20 μl of 3-4,5 dimethylthiazol-2,5-diphenyl tetrazolium bromide (MTT, 2.5 mg/ml in PBS, Sigma) for 3-4 hrs at 37° C. according to manufacturer's instructions. IC50 values were calculated from semi-log plots of % of control proliferation on the y-axis against log dose on the x-axis.
# [2] = test system: unstimulated splenocytes; assay: Murine splenocytes, 24 hour pre-incubation with compound then mitogenic stimulation; type: cell-based, Male Skh-1 (hairless) mice; conditions: 10 μM
# Procedure: Male Skh-1 (hairless) mice, six weeks old were killed by cervical dislocation. Single cell suspensions were made from their spleens and erythrocytes were lysed in buffer (0.14M NH4Cl, 17 mM Tris, pH 7.2). The remaining splenocytes were cultured in RPMI-1640 (Gibco) supplemented with 10% (v:v) FBS, 200 mM L-glutamine, penicillin/streptomycin and […] 2-mercaptoethanol. Splenocytes were added to triplicate wells containing either concanavalin A (ConA, Sigma-Aldrich—0.4 μg/well), lipopolysaccharide (LPS, Sigma-Aldrich—1 μg/well) or no mitogen, as well as 10 μM of either Compound 1 or Compound 2 in DMSO, or DMSO alone. Samples were analysed after a 3 day incubation at 37° C. in 5% CO2 in air. To assess cell numbers, methylthiazoletetrazolium (MTT) was added to each well, incubated for a further 4 hrs and then colour developed with 0.04N HCl in isopropanol (Mosmann 1983). Plates were read at 570 nm and 630 nm. The compounds were examined several times using different mice. For each assay, the effect of test compound was compared with that of vehicle control, and the results compared using a student's t test (Prism). Statistically significant difference was determined to have occurred when p<0.05.
# Another assay examined the effect pre-incubating unstimulated splenocytes with test compounds at 10 μM for 24 hours, removing the compounds and then assessing their ability to respond to mitogenic stimulation as described for the previous assay. Cell numbers were assessed after the 24 hr pre-incubation using MTT, and equal numbers of cells/well plated into 96 well plates as usual.
# [3] = test system: DU145 (Prostate); assay: In vitro cytotoxicity, MTT proliferation assay, DU145; type: cell-based, human; conditions: Homo sapiens, DU-145
# Procedure: as §1, §2, §3
# [4] = test system: human pancreatic cancer cell line, HPAC (CRL-2119); assay: In vitro cytotoxicity, MTT proliferation assay, CRL-2119; type: cell-based; conditions: Homo sapiens, HPAC; Pancreatic CRL-2119
# Procedure: as §1, §2, §3
# [5] = test system: HTB-138 (Glioma); assay: In vitro cytotoxicity, MTT proliferation assay, HTB-138; type: cell-based, human; conditions: Homo sapiens; Glioma HTB-138
# Procedure: as §1, §2, §3
# [6] = test system: HCT-15 (Colorectal); assay: In vitro cytotoxicity, MTT proliferation assay, HCT-15; type: cell-based, human; conditions: Homo sapiens; Colorectal HCT-15
# Procedure: as §1, §2, §3
# [7] = test system: SKOV-3 (Ovarian); assay: In vitro cytotoxicity, MTT proliferation assay, SKOV-3; type: cell-based, human; conditions: Homo sapiens, SK-OV-3; Ovarian SKOV-3
# Procedure: as §1, §2, §3
# [8] = test system: UV irradiation-induced skin oedema; assay: Murine model of UV irradiation-induced skin oedema; type: in vivo, female Skh:hr-1 albino mice; conditions: for Change in skin thickness (mean ± SD, ×0.01 mm): dorsal skin fold, topical 0.2 ml of 20 μM at 30 min, 2 h, 4 h
# Source text: Groups of 4-5 female Skh:hr-1 albino mice were irradiated with 1×3 MEdD (minimal edematous dose) of solar simulated UV radiation (SSUV). Solar-simulated ultraviolet radiation (SSUV) was provided by a planar bank of 6 UVA tube (Hitachi 40W F40T 10/BL, black light) and one UVB tube (Philips TL 40W/12RS) with radiation filtered through a sheet of 0.125 mm cellulose acetate (Eastman Chemical Products, Kingport, Tenn., USA) to give 2.96×10-4W/cm2 UVA and 1.59×10-5W/cm2 UVB. The distance of the UV lamp from the irradiance table surface was approximately 20 cm and temperature was controlled with an electric fan. During irradiation, the cages were rotated below the lights to reduce the variation in radiation intensity in different positions.
# Either test compound (0.2 ml of a 20 μM solution) or vehicle (propylene glycol/ethanol/water 1:2:1) was applied to the irradiated dorsal skin at 30 min, 2 h and 4 h post-irradiation. Dorsal skin fold measurements were made with a spring micrometer prior to and at 24 hr and 48 h post-UV exposure. The difference in skin thickness pre- and post-exposure to UVR was calculated for each mouse, and the differences examined between test compound and vehicle control were analysed using an unpaired two-tailed t test.
# [9] = test system: RK-13 (rabbit kidney) cells; assay: Normal cell toxicity, MTT proliferation assay, rabbit kidney cells; type: cell-based; conditions: Oryctolagus cuniculus, 24 hrs
# Procedure: Neonatal foreskin fibroblasts (NFF) were a gift from Dr. Peter Parsons (Queensland Institute of Medical Research). RK-13 (rabbit kidney) cells were obtained from Miller Whalley (Macquarie University). Both cell types were cultured in RPMI supplemented with 10% FCS (CSL, Australia), penicillin (100 U/ml), streptomycin ([…]), L-glutamine (2 mM) and sodium bicarbonate (1.2 g/L), and cultured at 37° C. in a humidified atmosphere of 5% CO2.
# as §3
# [10] = test system: A2780 (Ovarian); assay: In vitro cytotoxicity, MTT proliferation assay, A2780; type: cell-based, human; conditions: Homo sapiens
# Procedure: as §1, §2, §3
smiles,measurement,setting,value
"COc1ccc(C23COc4c(ccc(O)c4C)C2C2c4ccc(O)c(C)c4OCC2c2cc(OC)c(OC)cc23)cc1OC (stereo not drawn) [Cpd. 2, 4,9-Dihydroxy-14,15-dimethoxy-12a-(3′,4′-dimethoxyphenyl)-3,10-dimethyl-2,11-dioxa-(1H,12H)-6b,6c,12a,16b-tetrahydronaphtho[1,2-g]chrysene]",IC50,[1],10.3 µM
same,Splenocyte viability following three days' culture in the absence of mitogen,[2],significantly reduced
same,reduction in cell numbers compared with vehicle alone,[2],55%
same,proliferative response to ConA after pre-incubation,[2]; compound removed,significantly less
same,IC50,[3],8.84 ± 0.47 µM
same,IC50,[4],11.2 ± 4.7 µM
same,IC50,[5],16.4 µM
same,IC50,[6],54.7 ± 28 µM
same,IC50,[7],16.7 ± 10 µM
same,inhibition of skin oedema,[8]; 24 hrs post-irradiation,significantly inhibited
same,inhibition of skin oedema,[8]; 48 hrs post-irradiation,significantly inhibited
same,"Change in skin thickness (mean ± SD, ×0.01 mm)","[8]; 24 hrs post-irradiation, vehicle 78 ± 23",36 ± 22 ×0.01 mm
same,"Change in skin thickness (mean ± SD, ×0.01 mm)","[8]; 48 hrs post-irradiation, vehicle 147 ± 37",105 ± 16 ×0.01 mm
same,IC50,[9],36 ± 2.7 µM
same,IC50,[10],10.16 ± 0.07 µM
